Measured values from patent publication US8633242B2, “Benzylidene indanones and processes for preparation and use thereof” (Council of Scientific and Industrial Research, priority 2011, dated 2014).

Columns and labels:
DU-145 (prostate) = assay: Sulphorhodamine B cytotoxicity assay, DU-145; type: cell-based, human; conditions: Homo sapiens, DU-145; SRB assay, 48 hours incubation; read-out: Human cancer cell lines IC50, DU-145 (prostate)
Experimental: (§1) The benzylidene analogues were evaluated by Sulphorhodamine B Assay as per reported method [Skehan et al., J. Natl. Cancer Inst. 1990, 82, 1107]. The human cancer cell lines procured from National Cancer institute, Frederick, U.S.A. were used in present study. Cells were grown in tissue culture flasks in complete growth medium (RPMI-1640 medium with 2 mM glutamine, pH 7.4 supplemented with 10% fetal bovine serum, 100 μg/ml streptomycin and 100 units/ml penicillin) in a carbon dioxide incubator (37° C., 5% CO2, 90% RH). The cells at subconfluent stage were harvested from the flask by treatment with trypsin (0.05% in PBS (pH 7.4) containing 0.02% EDTA). Cells with viability of more than 98%, as determined by trypan blue exclusion, were used for determination of cytotoxicity. The cell suspension required concentration of cells was prepared in complete growth medium. Stock solution of 2×10^−2 M of compounds were prepared in DMSO and further dilution was carried out complete growth medium containing 50 μg/ml of gentamycin to obtained working test solution of required concentration. In vitro cytotoxicity against various human cancer cell lines was determined using 96-well cell culture plates. The 100 μl of cell suspension was added to each well of the 96-well cell culture plates. The cells were allowed to grow in CO2 incubator (37° C., 5% CO2, 90% RH) for 24 hours. The test materials in complete growth medium (100 μl) were added after 24 hours incubation to the wells containing cell suspension. The plates were further incubated for 48 hours (37° C. in an atmosphere of 5% CO2 and 90% relative humidity) in a carbon dioxide incubator after addition of test material and then the cell growth was stopped by gently layering trichloroacetic acid (50% TCA, 50 μl) on top of the medium in all the wells. The plates were incubated at 4° C. for one hour to fix the cells attached to the bottom of the wells. The liquid of all the wells was gently pipetted out and discarded. The plates were washed five times with distilled water to remove TCA, growth medium low molecular weight metabolites, serum proteins etc. and air-dried. Cell growth was measured by staining with sulforhodamine B dye. The adsorbed dye was dissolved in Tris-HCl Buffer (100 μl/well, 0.01M, pH 10.4) and plates were gently stirred for 10 minutes on a mechanical stirrer. The optical density (OD) was recorded on ELISA reader at 540 nm. 5-Fluorouracil, Paclitaxel (Taxol), Mitomycin-c and Adriamycin were used as positive controls.

PC-3 (prostate) = assay: Sulphorhodamine B cytotoxicity assay, PC-3; type: cell-based, human; conditions: Homo sapiens; SRB assay, 48 hours incubation; read-out: Human cancer cell lines IC50, PC-3 (prostate)
Experimental: as §1

MCF-7 (Breast cancer) = assay: Sulphorhodamine B cytotoxicity assay, MCF-7; type: cell-based, human; design: key to Human cancer cell lines IC50, MCF-7 (Breast cancer): Inactive: inactive, if IC50 > 100 μM; conditions: SRB assay, 48 hours incubation
Experimental: as §1

THP-1 (Leukemia) = assay: Sulphorhodamine B cytotoxicity assay, THP-1; type: cell-based, human; design: key to Human cancer cell lines IC50, THP-1 (Leukemia): Inactive: inactive, if IC50 > 100 μM; conditions: SRB assay, 48 hours incubation
Experimental: as §1

A549 (Lung) = assay: Sulphorhodamine B cytotoxicity assay, A549; type: cell-based, human; design: key to Human cancer cell lines IC50, A549 (Lung): Inactive: inactive, if IC50 > 100 μM; conditions: SRB assay, 48 hours incubation
Experimental: as §1

tubulin protein = assay: In-vitro tubulin polymerisation inhibition assay; type: biochemical; design: key to Tubulin polymerisation inhibition IC50: Inactive: inactive, if IC50 > 10 μM; conditions: tubulin 3 mg/mL, 37° C., 340 nm, 1 h
Experimental: The tubulin polymerization experiment was performed using ‘assay kit’ (Cytoskeleton USA) following manufacturer's protocol based on the procedure described by of Shelanski et al. (1973) and Lee et al. (1977). Briefly, tubulin protein (3 mg/mL) in tubulin polymerization buffer (80 mM PIPES, pH 6.9, 2 mM MgCl2, 0.5 mM EGTA, 1 mM GTP and 15% glycerol) was placed in pre-warmed 96-well microtiter plates at 37° C. in the presence of test compounds with variable concentrations. All samples were mixed well and polymerization was monitored kinetically at 340 nm every min for 1 h using a Spectramax plate reader. Podophyllotoxin and etoposide were used as positive controls and DMSO as negative control. The IC50 value was determined from dose-dependent analysis and is defined as the concentration that inhibits the rate of polymerization by 50%.
Podophyllotoxin and etoposide, standard tubulin polymerisation inhibitors were used as positive controls.

HeLa (Cervix) = assay: Sulphorhodamine B cytotoxicity assay, HeLa; type: cell-based, human; design: key to Human cancer cell lines IC50, HeLa (Cervix): Inactive: inactive, if IC50 > 100 μM; conditions: SRB assay, 48 hours incubation
Experimental: as §1

HCT (Colon) = assay: Sulphorhodamine B cytotoxicity assay, HCT; type: cell-based, human; design: key to Human cancer cell lines IC50, HCT (Colon): Inactive: inactive, if IC50 > 100 μM; conditions: SRB assay, 48 hours incubation
Experimental: as §1

`COc1cc(C2/C(=C/c3ccc(OCc4ccccc4)cc3)C(=O)c3cc(OC)c(OC)c(OC)c32)cc(OC)c1OC` (stereo not drawn) [Compound 22, 2-(4″-benzyloxybenzylidene), 3-(3′,4′,5′-trimethoxyphenyl)-4,5,6-trimethoxy indan-1-one] showed an IC50 (DU-145 (prostate)) of 78.9 µM, a melting point of 188 to 190 °C and an IC50 (PC-3 (prostate)) of 78.9 µM. For the same compound, the “Human cancer cell lines IC50, MCF-7 (Breast cancer)” value (MCF-7 (Breast cancer)) was “Inactive”, the “Human cancer cell lines IC50, THP-1 (Leukemia)” value (THP-1 (Leukemia)) was “Inactive” and the “Human cancer cell lines IC50, A549 (Lung)” value (A549 (Lung)) was “Inactive”. For the same compound, the “Tubulin polymerisation inhibition IC50” value (tubulin protein) was “Inactive”, the “Human cancer cell lines IC50, HeLa (Cervix)” value (HeLa (Cervix)) was “Inactive” and the “Human cancer cell lines IC50, HCT (Colon)” value (HCT (Colon)) was “Inactive”.
